Here are results for one compound from article PMC10017155 (Aging and Disease, 2023).

Peptide text beside a SMILES is read from it.

One experiment deals with Aβ16. In words: NMR titration, Aβ16 with HAEE and Zn2+. The experiment is classed as binding. The conditions noted are these: 278 K, pH 6.8, Zn2+. As for the experimental part:
(§1) Peptides Aβ16, H6R-Aβ16 and isoD7-Aβ16 at the concentration of 0.2 - 8mM were dissolved in 10-20 mM bis-Tris-d19 (2,2-Bis(hydroxymethyl)-2,2′,2"-nitrilotrie-thanol-d19 with 98% ^2D enrichment) buffer solution (pH 6.8). Sodium salt of 3-(trimethylsilyl) propionic-2,2,3,3-d4 acid (DSS) at a concentration of 10-20 μM was added as the standard. NMR spectra were measured at 278 K in 90% H2O/10% D2O with Bruker AVANCE 600 MHz spectrometer equipped with triple resonance (^1H, ^13C and ^15N) pulsed field z gradient probe. 1D NMR spectra were processed and analyzed using the Mnova software (Mestrelab Research, Spain). In order to monitor peptide-peptide interactions NMR titration experiments were carried out. […] 1D spectra were recorded for each titration point.

In the next experiment the test system is isoD7-Aβ16. In words: NMR titration, isoD7-Aβ16 with HAEE and Zn2+. The experiment is classed as binding. The conditions noted are these: NMR. As for the experimental part: as §1
In a further experiment the test system is C. elegans CL2122. Kind of experiment: Lifespan analysis, C. elegans CL2122 (transgenic control). The format is in vivo. The conditions noted are these: for Increase/decrease in lifespan: vs control of same repeat. As for the experimental part:
C. elegans CL2120 (dvIs14 [(pCL12) unc-54::beta 1-42 +(pCL26) mtl-2::GFP]) and C. elegans CL2122 (dvIs15 [(pPD30.38) unc-54(vector) + (pCL26) mtl-2::GFP]) strains were obtained from the Caenorhabditis Genetics Center. The worms were handled according to standard methods without FUDR [18]. E. coli OP50 bacteria were grown overnight in Luria-Bertani broth and 50µl were spread atop NGM or NGMZn plates. NGMZn has 20μM ZnSO4. Seeded plates were incubated at 30°C for ~16 hours and then for 1-2 hours at 15 or 25°C before worms were transferred. Lifespan and paralysis experiments (see below) were performed at 25°C for enhanced expression of Aβ. This temperature is standard when studying the effects of Aβ on C. elegans CL2120 strain [19].
Nematodes were purified from unwanted microflora by the alkaline hypochlorite method, grown to the L4 stage at 15°C on NGM plates with bacterial lawn. […] Further, all contents were transferred to Petri plates with NGM or NGMZn with OP50 and placed in a temperature-controlled incubator at 25°C. Next day, worms were transferred onto similar media with a bacterial substrate and the lifespan was determined at 25°C (Supplementary Tables 3, 4).
Lifespans were monitored at 25°C as described previously. All experiments were repeated at least three times and ≈130 worms were used for each experiment. Details regarding repeated experiments and amounts of animals used for experiments are summarized in Supplementary Tables 3, 4. In all cases, stage L4 worms were used at t = 0 for lifespan analyses and worms were transferred every other day to new agar plates. […] Escaped animals or animals with internal hatching were not included in lifespan calculation. Data was analyzed and Boltzmann sigmoid survival curves generated using the SciDAVis statistical analysis software package. Mean lifespans were compared in Microsoft Excel using the Student t test, applying one-tailed distribution and two-sample equal variance. All lifespan plots represent the composites of all independent experiments tabulated in Supplementary Tables 3, 4. Mean percentage change ±SD of lifespan after treatment, relative to untreated control are indicated in each graph in the same color as the curve.

The subject of another experiment is transgenic mice. The conditions noted are these: cited from earlier work. From the text: The development of AD comprises a cascade of pathogenic processes in brain tissue. Some of the major elements of this cascade are the aggregation of beta-amyloid (Aβ) with the formation of neurotoxic oligomers, hyperphosphorylation of tau, and neuroinflammation. […] In the sporadic form of AD, accounting for 95% of disease cases, the molecular triggers for the pathological cascade remain unknown. […] We hypothesized that the contribution of isoD7-Aβ to the development of AD is based on the formation of zinc-bound complexes that promote pathological aggregation of Aβ (Fig. 1A). […] Interaction of HAEE with beta-amyloid. (A) A model for the contribution of isoD7-Aβ to AD pathology, and the possible ways of preventing its deleterious effects. Aβ spontaneously converts into isoD7-Aβ, which is accumulated over age, likely due to reduced Aβ clearance. Isomerized Aβ promotes AD pathology, potentially via formation of Zn-bound complexes serving as the seeds for a generation of neurotoxic oligomers. Treatment with anti-isoAβ antibodies is a promising therapeutic strategy already showing effectiveness in AD model mice ^9.

[1] abbreviates: CL2122, NGM (no Zn), replicate 1.
The mark [2] stands for this setting: CL2122, NGM (no Zn), replicate 2.
Where [3] appears, read: CL2122, NGM (no Zn), replicate 3.

In the case of `CC(=O)N[C@@H](Cc1c[nH]cn1)C(=O)N[C@@H](C)C(=O)N[C@@H](CCC(=O)O)C(=O)N[C@@H](CCC(=O)O)C(N)=O` [HAEE, Ac-HAEE-NH2] (Ac-HAEE-NH2), in the experiment with Aβ16 (1H NMR), the “Signal at 0.2 ppm (characteristic of the dimeric form of the Aβ metal binding domain)” value is listed as “eliminated the signal”. In addition, the “Zinc-dependent dimerization of Aβ16” value in the experiment on Aβ16 (NMR) was “inhibits”. In addition, in the experiment on isoD7-Aβ16 (278 K, pH 6.8, Zn2+), the “Zinc-dependent dimerization of isoD7-Aβ16” value is “inhibits”. The “Effect of Zn2+ on isoD7-Aβ16 NMR signal in the presence of HAEE” value in the experiment with isoD7-Aβ16 (pH 6.8, 278 K, Zn2+ plus HAEE) is recorded as “did not diminish the isoD7-Aβ16 signal”. Further, in the experiment with C. elegans CL2122 (CL2122, HAEE 4 mM), the “Effect of HAEE itself on lifespan” value is on record as “no effect”. This compound returned a Mean survival in the experiment on C. elegans CL2122 (CL2122, NGM (no Zn), Aβ42 or isoD7-Aβ42 40 μM, HAEE 4 mM, 25°C, mean ± SD of 3 experiments) of 9.07 ± 0.25 days. The 50% survival in the experiment with C. elegans CL2122 (setting [1]) worked out at 8.8 days; with C. elegans CL2122 (setting [2]), 9.3 days; with C. elegans CL2122 (setting [3]) it was 9.1 days; in the experiment with C. elegans CL2122 (CL2122, NGMZn, replicate 1), 8.8 days; with C. elegans CL2122 (CL2122, NGMZn, replicate 2), 9.1 days; with C. elegans CL2122 (CL2122, NGMZn, replicate 3) it was 8.9 days. Further, the “Mean increase/decrease in lifespan” value in the experiment on C. elegans CL2122 (CL2122, NGM (no Zn), vs control NGM, mean ± SD of 3 experiments) was 0.03±1.89%; in the experiment on C. elegans CL2122 (CL2122, NGMZn, vs control NGMZn, mean ± SD of 3 experiments), -1.05 ±2.87%. Moreover, the Increase/decrease in lifespan in the experiment on C. elegans CL2122 (setting [1]) is 1.15%; in the experiment on C. elegans CL2122 (setting [2]) it was 1.09%; in the experiment on C. elegans CL2122 (setting [3]), -2.15%; in the experiment on C. elegans CL2122 (CL2122, NGMZn, replicate 1), 1.15%; in the experiment with C. elegans CL2122 (CL2122, NGMZn, replicate 2), 0%; with C. elegans CL2122 (CL2122, NGMZn, replicate 3), -4.3%. Further, the “Effect on lifespan” value in the experiment on C. elegans CL2122 (CL2122, NGM, without Zn2+, 25°C) was “do not affect”. In addition, the “Amyloid accumulation in animal models of AD” value with transgenic mice is on record as “hamper amyloid accumulation”.
